Laboratory results taken from patent publication US5420128A, “Pyrimidine derivatives, method of manufacturing the same, and androgen inhibitor” (Otsuka Pharmaceutical Co., Ltd., priority 1990, dated 1995).

What was measured:
[1] = molecular target: T1, rat prostate androgen receptor (Rattus norvegicus, UniProt P15207); assay: inhibitory activity on binding of ^3 H-mibolerone on rat prostate androgen receptor; conditions: ^3 H-mibolerone 1 nM, triamcinolone acetonide 5 μM, rat ventral prostate cytosol, 20 hours at 0° C.; read-out: Inhibitory activity on mibolerone specific binding [IC50 (M)]
T1 construct: the supernatant was obtained as cytoplasm fraction; from tissue; host or cells: cytosol (105000×g supernatant) of rat ventral prostate, 24 hours after castration
T1 sequence (P15207 1-902): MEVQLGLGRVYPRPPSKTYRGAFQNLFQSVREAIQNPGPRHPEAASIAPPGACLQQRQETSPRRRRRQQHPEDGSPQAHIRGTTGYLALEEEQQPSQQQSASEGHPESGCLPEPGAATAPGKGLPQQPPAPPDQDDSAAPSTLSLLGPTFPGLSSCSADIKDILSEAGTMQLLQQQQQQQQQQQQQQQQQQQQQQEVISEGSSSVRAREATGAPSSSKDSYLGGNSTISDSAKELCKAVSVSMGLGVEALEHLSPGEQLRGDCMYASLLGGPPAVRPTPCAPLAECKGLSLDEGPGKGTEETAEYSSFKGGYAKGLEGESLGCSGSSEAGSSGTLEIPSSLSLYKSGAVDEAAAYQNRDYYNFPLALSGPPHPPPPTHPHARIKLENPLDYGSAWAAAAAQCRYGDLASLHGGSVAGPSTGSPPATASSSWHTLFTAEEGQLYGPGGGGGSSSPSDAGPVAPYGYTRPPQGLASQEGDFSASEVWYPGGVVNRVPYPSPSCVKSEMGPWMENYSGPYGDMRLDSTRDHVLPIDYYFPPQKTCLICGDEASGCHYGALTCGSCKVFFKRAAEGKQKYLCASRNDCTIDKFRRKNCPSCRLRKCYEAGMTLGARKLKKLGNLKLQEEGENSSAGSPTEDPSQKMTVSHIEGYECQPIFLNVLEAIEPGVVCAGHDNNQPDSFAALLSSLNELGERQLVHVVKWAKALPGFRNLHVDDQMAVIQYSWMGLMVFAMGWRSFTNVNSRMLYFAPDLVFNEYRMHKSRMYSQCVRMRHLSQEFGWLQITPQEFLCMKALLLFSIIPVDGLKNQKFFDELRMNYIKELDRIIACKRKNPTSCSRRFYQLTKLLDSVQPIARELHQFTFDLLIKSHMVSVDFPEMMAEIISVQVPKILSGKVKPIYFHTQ
Method: B. Measurement of inhibitory activity on binding of ^3 H-mibolerone on rat prostate androgen receptor
The rat was sacrificed 24 hours after castration, and the ventral lobe of prostate was removed, and was gently homogenized, in ice-cooling water bath, at first by using Polytron and then using Potter type homogenizer, in three-fold amount of buffer solution A (1.5 mM EDTA, 2 mM dithiothreitol, 10 mM molybdate sodium, 10 % by volume of glycerol, 10 mM NaF, 25 mM phosphate sodium, pH 7.2). The obtained homogenate was filtrated through double gauze, and centrifuged at 105000×g for 60 minutes at 4° C., and the supernatant was obtained as cytoplasm fraction.
(2) Measurement of specific binding of ^3 H-mibolerone on prostate cytoplasm androgen receptor
To the cytoplasm fraction obtained in (1), ^3 H-mibolerone (87.0 Ci/mmol) was added, so that a final concentration is adjusted to 1 nM, and at the same time, in order to inhibit binding of ^3 H-mibolerone to progestin receptor, triamsinolone acetonide was added to a final concentration of 5 μM, and the final volume was adjusted to 0.4 ml with buffer solution A, and the reaction mixture was incubated for 20 hours at 0° C. After incubation, 0.5 ml of 60% hydroxylapatite slurry (washed and equilibrate with a buffer solution B: 10 mM NaH2 P04, 20 mM tris-hydrochloric acid, pH 7.2) was added, and incubated for 10 minutes at 0° C., the solution was transferred onto a glass fiber filter, and washed five times with 5 ml portions of buffer solution B containing 0.1% (weight/volume) of Triton X-100, to remove free ^3 H-mibolerone. This glass fiber was transferred into vial, and 10 ml of aquasol-2 was added, and the radioactivity was measured, and the total binding amount of ^3 H-mibolerone on prostate cytoplasm androgen receptor was determined.
The nonspecific binding amount was determined similarly by adding an unlabeled 5α-DHT in the reaction solution to a final concentration of 1 μM. The difference between the total binding amount and nonspecific binding amount was determined as the specific binding amount on the androgen receptor.
(3) Inhibitory activity of sample compounds on ^3 H-mibolerone specific binding
The compounds obtained in the experiments were added simultaneously with ^3 H-mibolerone at different concentrations to incubate same as in (2), and the specific binding amount of 3H-mibolerone on androgen receptor was determined. Comparing this value with the value obtained in (2), the IC50 value of inhibitory activity of the compounds on ^3 H-mibolerone specific binding was determined.

[2] = molecular target: T1, rat prostate androgen receptor; assay: inhibitory activity on binding of ^3 H-5α-DHT on rat prostate androgen receptor; conditions: ^3 H-5α-DHT 1 nM, rat ventral prostate cytosol, about 20 hours at 0° C.; read-out: Inhibitory activity on 5α-DHT specific binding [IC50 (M)]
Method: The compounds obtained in Examples were evaluated in the following pharmacological studies A and B. The pharmacological study A was conducted in conformity with J.B.C. 256 (15) 7998-8005, 1981.
A. Measurement of inhibitory activity on binding of ^3 H-5α-[…] (^3 H-5α,-DHT) on rat prostate androgen receptor
(1) Preparation of cytosol from rat prostate
The rat was sacrificed 24 hours after castration, and the ventral lobe of prostate was removed, and was gently homogenized, on ice water bath, by using a Potter homogenizer in three-fold amount of 0.25M sucrose-TME buffer solution (50 mM tris-HCl (pH 7.4), 0.5 mM mercaptoethanol, and 0.1 mM EDTA-2 Na). The homogenate was filtrated through double gauze, and ultracentrifuged at 105000×g for 60 minutes, and the supernatant was used as androgen receptor.
(2) Measurement of ^3 H-5α-DHT specific binding on prostate cytoplasmic androgen receptor
To the cytosol obtained in (1), ^3 H-5α-DHT (47.8 Ci/mmol) was added, so that a final concentration is adjusted to 1 nM, and 0.25 M sucrose-TME buffer was added to adjust the final volume to 0.5 ml, and the reaction mixture was incubated for about 20 hours at 0° C. An ammonium sulfate solution dissolved in 0.25 M sucrose-TME buffer was mixed to be 35% saturation, and after standing for 90 minutes at 0° C., the mixture was centrifuged at 10000×g for 10 minutes at 4° C., and the precipitate was obtained.
This precipitate was suspended again in 0.8 ml of the above buffer solution, and furthermore in order to remove the free type ^3 H-5α-DHT, 0.2 ml of dextran-carbon powder suspension (4% activated carbon, 0.1% dextran T-70, and 0.1% gelatin dissolved in the above buffer solution) was added and mixed, and the mixture was let stand for 10 minutes at 0° C. At 4° C., in succession, the mixture was centrifuged at 3000×g for 10 minutes, and 0.5 ml of the supernatant was transferred into a vial, and 10 ml of aquasol-2 was added, and radioactivity was measured, and the total binding amount of ^3 H-5α-DHT on the prostate cytoplasma androgen receptor was determined. The nonspecific binding amount was similarly determined by adding a non-radioactive ligand (5α-DHT) to the reaction solution to a final concentration of 1 μM. The difference between the total binding amount and nonspecific binding amount was determined as the specific binding amount on the androgen receptor.
(3) Inhibitory activity of sample compounds on ^3 H-5α-DHT specific binding
The compounds obtained in Examples were incubated with ^3 H-5α-DHT at several concentrations same as in (2), and the specific binding amount of ^3 H-5α-DHT on the androgen receptor was determined. Comparing the obtained value with the value of (2), the IC50 value of the test compounds on ^3 H-5α-DHT specific binding was determined. The following compounds were used as the positive controls.

| Compound | IC50 [1] [M] | IC50 [2] [M] |
| --- | --- | --- |
| COc1cc(-c2cnn3c(O)ncnc23)ccc1Sc1ccccc1 [Example 101, 4-Hydroxy-8-(3-methoxy-4-phenylthiophenyl)pyrazolo [1,5-a]-1,3,5-triazine] | 1.5e-07 | 3e-07 |
| Oc1ccnc2c(-c3ccc(Sc4ccccc4)cc3)cnn12 [Example 3, 7-Hydroxy-3-(4-phenylthiophenyl)pyrazolo[1,5-a]pyrimidine] | 9e-08 | 8.5e-07 |
| Cc1cc(-c2cnn3c(O)ncnc23)ccc1Sc1ccc(Br)cc1 [Example 100, 8-[4-(4-bromophenylthio)-3-methylphenyl]-4-hydroxypyrazolo[1,5-a]-1,3,5-triazine] | – | 4e-07 |
| Cc1ccc(NS(=O)(=O)c2ccc(-c3cnn4c(O)ncnc34)cc2)cc1 [Example 88, 4-Hydroxy-8-[4-(4-methylphenylaminosulfonyl)phenyl]pyrazolo[1,5-a]-1,3,5-triazine] | – | < 5e-06 |
| CCc1ccc(NS(=O)(=O)c2ccc(-c3cnn4c(O)ncnc34)cc2)cc1 [Example 89, 8-[4-(4-Ethylphenylaminosulfonyl)phenyl]-4-hydroxypyrazlo[1,5-a]-1,3,5-triazine] | – | < 5e-06 |
| Cc1cc(O)n2ncc(-c3ccc(Sc4ccccc4)cc3)c2n1 [Example 5, 7-Hydroxy-5,methyl-3-(4-phenylthiophenyl)pyrazolo[1,5-a]pyrimidine] | 5e-07 | 5e-07 |
| Cc1ccccc1Sc1ccc(-c2cnn3c(O)ncnc23)cc1C [Example 82, 4-Hydroxy-8-[3-methyl-4-(2-methylphenylthio)phenyl]pyrazolo[1,5-a]-1,3,5-triazine] | – | 1.1e-06 |
| Oc1ncnc2c(-c3ccc(Sc4ccccc4)cc3)cnn12 [Example 77, 4-Hydroxy-8-(4-phenylthiophenyl)pyrazolo[1,5-a]-1,3,5-triazine] | 4.6e-07 | 9.6e-07 |
| Cc1cc(-c2cnn3c(O)ncnc23)ccc1S(=O)(=O)Nc1ccccc1 [Example 103, 4-Hydroxy-8-(3-methyl-4-phenylaminosulfonylphenyl)pyrazolo[1,5-a]-1,3,5-triazine] | – | 2.5e-07 |
| Oc1ncnc2c(-c3ccc(Sc4ccccc4)c(Cl)c3)cnn12 [Example 102, 8-(3-chloro-4-phenylthiophenyl)-4-hydroxypyrazolo[1,5-a]-1,3,5-triazine] | – | 2.2e-06 |

Other lines, results leading:

| IC50 [1] [M] | IC50 [2] [M] | Compound |
| --- | --- | --- |
| – | 1.6e-07 | COc1cccc(Sc2ccc(-c3cnn4c(O)ncnc34)cc2C)c1 [Example 85, 4-Hydroxy-8-[4-(3-methoxyphenylthio)-3-methyl]phenylpyrazolo[1,5-a]-1,3,5-triazine] |
| – | 1.3e-07 | Cc1cccc(Sc2ccc(-c3cnn4c(O)ncnc34)cc2C)c1 [Example 83, 4-Hydroxy-8-[3-methyl-4-(3-methylphenylthio)phenyl]pyrazolo[1,5-a]-1,3,5-triazine] |
| 4e-08 | 1.3e-07 | O=S(=O)(Nc1ccccc1)c1ccc(-c2cnn3c(O)ncnc23)cc1 [Example 87, 4-Hydroxy-8-(4-phenylaminosulfonylphenyl)pyrazolo[1,5-a]-1,3,5-triazine] |
| – | 1.5e-07 | Cc1cc(-c2cnn3c(O)ncnc23)ccc1Sc1ccccc1 [Example 81, 4-Hydroxy-8-(3-methyl-4-phenylthiophenyl)pyrazolo[1,5-a]-1,3,5-triazine] |
| – | 1.2e-07 | COc1ccc(Sc2ccc(-c3cnn4c(O)ncnc34)cc2C)cc1 [Example 86, 4-Hydroxy-8-[4-(4-methoxyphenylthio)-3-methyl]phenylpyrazolo[1,5-a]-1,3,5-triazine] |
